Measured values from US6110122A, “Breath test for assessing hepatic function” (priority 1999, dated 2000).
Several values for one entry are separate records, joined by “and”; a condition that tells them apart may be missing. Identical values can stand only once.

Legend:
[1] = tested on: cytosolic function; conditions: patients with alcoholic disease; cited from earlier work
[2] = tested on: hepatic mitochondrial function; assay: Effect of alcohol and ASA ingestion on the MBT in healthy controls; assay type: in vivo, human; conditions: for effect of ingestion on MBT (in words): healthy controls
Procedure: […] The protocol was then identical to that described previously in Example 1.
The protocol for breath collection was followed as described previously.
The maximum percent dose oxidized per minute was calculated for each substrate following the procedure outlined above in Example 1.

[3] = tested on: mitochondrial function; conditions: therapeutic doses of ASA; cited from earlier work
[4] = tested on: hepatic mitochondria; conditions: in vivo; cited from earlier work
[5] = cited from earlier work
[6] = tested on: hepatic mitochondrial function; assay: MBT in patients with liver disease, reproducibility and correlation with Child-Pugh score
[7] = tested on: hepatic mitochondrial function; conditions: in vivo
[8] = cited from earlier work; remark: listed apart in the source

In the case of `O=C[C@H](O)[C@@H](O)[C@@H](O)[C@H](O)CO` [galactose], the “aminopyrine breath test / galactose elimination capacity (in words)” value [1] is given as “normal”.

In the case of `CC(=O)Oc1ccccc1C(=O)O` [ASA, acetylsalicylic acid], the “mean change of MBT from baseline with ASA” value ([2]; ASA, n=11, p<0.001) is reported as 36±36%, the “effect of ingestion on MBT (in words)” value [2] is reported as “increases” and the “MBT after ASA ingestion” value ([2]; individual subject, ASA 30 mg/kg 15 min prior to MBT) is reported as 9.47 % dose/hour and 10.08 % dose/hour and 8.88 % dose/hour and 8.73 % dose/hour and 7.77 % dose/hour and 7.34 % dose/hour and 9.24 % dose/hour and 6.47 % dose/hour and 8.61 % dose/hour and 6.88 % dose/hour and 9.27 % dose/hour. The “change detected by ^13 C-KICA test (in words)” value [3] was “mitochondrial changes”.

In the case of `CCO` [alcohol], the “mean change of MBT from baseline with alcohol” value ([2]; alcohol, n=9, p<0.003) is reported as -59±17%, the “effect of ingestion on MBT (in words)” value [2] is reported as “significantly decreases” and the “MBT after alcohol ingestion” value ([2]; individual subject, 60 cc vodka 15 min prior to MBT) is reported as 3.36 % dose/hour and 4.54 % dose/hour and 2.76 % dose/hour and 2.22 % dose/hour and 2.97 % dose/hour and 3.39 % dose/hour and 1.86 % dose/hour and 3.52 % dose/hour and 2.45 % dose/hour. For the same compound, the “MBT after alcohol ingestion, group mean” value ([2]; n=9, 60 cc vodka 15 min prior to MBT) was 3.01 % dose/hour and 3.01±0.81 % dose/hour and the “effect on KICA decarboxylation (in words)” value [4] was “deceases KICA decarboxylation”.

In the case of `CC(C)CC(=O)C(=O)O` [KICA, ketoisocaproic acid], the “stability in solution (in words)” value [5] is given as “instability in solution” and the “reduction in ^14 CO2 production” value [4] is given as 75%.

In the case of `CSCC[C@H](N)C(=O)O` [methionine, L-1-^13 C-methionine], the “MBT result for all patients” value ([6]; all liver patients) is reported as 2.85 % dose/hour, the “MBT 1” value ([6]; cirrhotic patients, individual) is reported as 5.01 % dose/hour and 6.30 % dose/hour and 2.47 % dose/hour and 7.18 % dose/hour and 5.66 % dose/hour and 3.20 % dose/hour and 3.55 % dose/hour and 1.67 % dose/hour and 4.36 % dose/hour and 2.63 % dose/hour and 2.10 % dose/hour and 0.99 % dose/hour and 2.02 % dose/hour and 1.31 % dose/hour and 1.34 % dose/hour and 1.87 % dose/hour and 1.94 % dose/hour and 0.46 % dose/hour and 1.80 % dose/hour and 0.54 % dose/hour and 1.11 % dose/hour and the “MBT Mean” value ([6]; cirrhotic patients, individual, mean of MBT 1 and 2) is reported as 4.55 % dose/hour and 6.56 % dose/hour and 2.58 % dose/hour and 6.43 % dose/hour and 5.69 % dose/hour and 3.02 % dose/hour and 3.47 % dose/hour and 2.03 % dose/hour and 4.34 % dose/hour and 2.73 % dose/hour and 2.11 % dose/hour and 1.99 % dose/hour and 2.13 % dose/hour and 1.32 % dose/hour and 1.34 % dose/hour and 1.82 % dose/hour and 2.04 % dose/hour and 0.53 % dose/hour and 1.40 % dose/hour and 0.54 % dose/hour and 0.97 % dose/hour and 1.38 % dose/hour. For the same compound, the “MBT 2” value ([6]; cirrhotic patients, individual, repeat within 12 h) was 4.09 % dose/hour and 6.81 % dose/hour and 2.69 % dose/hour and 5.68 % dose/hour and 5.71 % dose/hour and 2.84 % dose/hour and 3.39 % dose/hour and 2.39 % dose/hour and 4.31 % dose/hour and 2.83 % dose/hour and 2.11 % dose/hour and 2.98 % dose/hour and 2.24 % dose/hour and 1.33 % dose/hour and 1.77 % dose/hour and 2.14 % dose/hour and 0.59 % dose/hour and 0.99 % dose/hour and 0.82 % dose/hour and 1.44 % dose/hour, the “MBT 1, group mean” value ([6]; cirrhotic patients, mean) was 2.67 % dose/hour and the “MBT 2, group mean” value ([6]; cirrhotic patients, mean) was 2.86 % dose/hour. For the same compound, the “MBT Mean, group mean” value ([6]; cirrhotic patients, mean of MBT 1 and 2) was 2.76 % dose/hour, the “MBT value (mean±SD), CP A” value ([6]; patients with CP score A) was 5.16±1.61 % dose/hour and the “MBT value (mean±SD), CP B” value ([6]; patients with CP score B) was 2.81±0.94 % dose/hour. For the same compound, the “MBT value (mean±SD), CP C” value ([6]; patients with CP score C) was 1.45±0.55 % dose/hour, the “mean difference between MBT test 1 and test 2 (95% CI)” value [7] was -0.073 (-0.475,0.330) and the “MBT, Mean T1 and T2 (baseline), group mean” value ([2]; ASA group (n=11) before ASA) was 6.17 % dose/hour. The “MBT, Mean T1 and T2 (baseline), group mean” value ([2]; alcohol group (n=9) before alcohol) was 7.37 % dose/hour, the “correlation r of methionine clearance with CP score” value ([8]; cirrhotic patients) was -0.80 and the “correlation r of methionine clearance with GEC” value ([8]; cirrhotic patients) was 0.82. The “plasma clearance of methionine (in words)” value ([8]; intravenous, liver disease / cirrhotic patients vs healthy controls) was “reduced” and the “fasting plasma methionine level (in words)” value ([8]; liver disease vs healthy controls) was “elevated”.

For `Cc1c(N(C)C)c(=O)n(-c2ccccc2)n1C` [aminopyrine], the “aminopyrine breath test / galactose elimination capacity (in words)” value [1] is given as “normal”.

For `O=C([O-])c1ccccc1O.[Na+]` [sodium salicylate], the “effect on KICA decarboxylation (in words)” value [4] is listed as “increase in KICA decarboxylation”.
